In patent publication US11419335B2, “N-arylated analogues and uses thereof” (University of Florida Research Foundation, Incorporated, priority 2016, dated 2022):
Where two headings read alike, the source gives them in different places. Marks after values point to notes of the source that are not given here.

What was measured:
[1] = tested on: C. albicans SC5314; assay: Minimum fungicidal concentration assay, C. albicans; format: cell-based, Candida albicans; conditions: Table 2B
[2] = tested on: C. neoformans ATCC 66031; assay: Minimum fungicidal concentration assay, C. neoformans; format: cell-based; conditions: Table 2B
[3] = tested on: MRSE ATCC 35984 biofilms; assay: Calgary Biofilm Device assay (MBC/MBEC), MRSE 35984; format: cell-based, Staphylococcus epidermidis
Method: (§1) The lid of the Calgary device was then removed, washed and transferred to another 96-well plate containing 2-fold serial dilutions of the test compounds (the “challenge plate”). The total volume of media with compound in each well in the challenge plate is 150 μL. […] The lid was then removed from the challenge plate and MBC/MBEC values were determined using different final assays. […] The MBC values were determined as the concentration giving a lack of visible bacterial growth (i.e., turbidity). […] In select experiments, pegs from the Calgary device were removed from lead biofilm eradicators after final incubation, sonicated for 30 minutes in PBS and plated out to determine biofilm cell killing of lead biofilm-eradicating agents (i.e., colony forming unit per milliliter, CFU/mL).
(§2) Using a Calgary Biofilm Device, bacterial biofilms are established on pegs suspended to the bottom of a 96-well plate lid. Following biofilm establishment on lid pegs, lids are then transferred to new 96-well plates containing serial dilutions of test compound and allowed to incubate. After compound treatment, 96-well plate lids with pegs are once again transferred to 96-well plates containing fresh media. During this final phase of the assay, viable biofilms will grow and disperse planktonic cells into the media where they will grow and give a turbid well result. Conversely, wells that have no growth are a result of pegs that had eradicated bacterial biofilms. The lowest concentration at which no turbidity is observed is the minimum biofilm eradication concentration (MBEC). Using the Calgary Biofilm Device, both minimum biofilm eradication concentrations and minimum bactericidal concentrations (MBC) for planktonic bacterial can be determined using one assay from a single bacterial culture (FIG. 3A).

[4] = tested on: Klebsiella pneumoniae (ATCC 13883); assay: MIC broth microdilution, K. pneumoniae 13883; format: cell-based
Method: (§3) The minimum inhibitory concentration (MIC) for each tested compound was determined by the broth microdilution method as recommended by the Clinical and Laboratory Standards Institute (CLSI). In a 96-well plate, eleven two-fold serial dilutions of each compound were made in a final volume of 100 μL Luria Broth. Each well was inoculated with ˜10^5 bacterial cells at the initial time of incubation, prepared from a fresh log phase culture (OD600 of 0.5 to 1.0 depending on bacterial strain). The MIC was defined as the lowest concentration of compound that prevented bacterial growth after incubating 16 to 18 hours at 37° C. (MIC values were supported by spectrophotometric readings at OD600). DMSO served as our vehicle and negative control in each microdilution MIC assay. DMSO was serially diluted with a top concentration of 1% v/v.
as §3, with “for each compound was” for “for each tested compound was”, “Standards Institute (CLSI).^6 In a” for “Standards Institute (CLSI). In a”, “concentration of test compound that” for “concentration of compound that”, “37° C. The concentration range tested for each compound during this study was 0.10 to 100 μM. DMSO served” for “37° C. (MIC values were supported by spectrophotometric readings at OD600). DMSO served”, “1% v/v. All MIC values were obtained from a minimum of three independent experiments.” for “1% v/v.”

[5] = tested on: MRSA-2 biofilms; assay: Calgary Biofilm Device assay (MBC/MBEC), MRSA-2; format: cell-based, Staphylococcus aureus; conditions: Table 2A; CBD assay
Method: as §1, §2

[6] = tested on: Escherichia coli clinical isolate (UAEC-1); assay: MIC broth microdilution, UAEC-1; format: cell-based; conditions: for MIC UAEC-1: Table 4; for MIC: Table 1
Method: as §3
as §3, with “for each compound was” for “for each tested compound was”, “Standards Institute (CLSI).^6 In a” for “Standards Institute (CLSI). In a”, “concentration of test compound that” for “concentration of compound that”, “37° C. The concentration range tested for each compound during this study was 0.10 to 100 μM. DMSO served” for “37° C. (MIC values were supported by spectrophotometric readings at OD600). DMSO served”, “1% v/v. All MIC values were obtained from a minimum of three independent experiments.” for “1% v/v.”

[7] = tested on: C. albicans SC5314 biofilms; assay: MTT assay for fungal biofilm eradication (MBEC), C. albicans; format: cell-based, Candida albicans; conditions: Table 2B, 90% eradicated biofilm
Method: One colony was picked from a 24-hour old culture of Candida spp. or 48-hour old culture of C. neoformans and added to YPD liquid medium for inoculation and cultured at 37° C. overnight. Cells were then washed with PBS (Phosphate-buffered saline (10 mM potassium phosphate, 150 mM NaCl, pH 7.0)) and standardized to OD600=1.0. Microtiter wells were then treated with 50% FCS (Fetal calf serum) in PBS for at least 30 min at room temperature (FCS pre-treatment is not absolutely required for Candida spp.). The FCS was aspirated and microtiter wells were rinsed once with 200 μL PBS before 100 μL of the cell suspension was added to each microtiter well. The plate was then incubated statically at 37° C. for 2 hours. Non-adherent cells were then removed by aspiration and microtiter wells were washed with PBS twice to remove loosely associated cells.
The resulting cell culture was aspirated and wells were rinsed once with 200 μL PBS. Controls and compounds were diluted in YNB medium (200 μL) were added to microtiter wells.
Following incubation, the culture was aspirated and wells are rinsed twice with 200 μL PBS before 100 μL of MTT (0.5 mg/mL dissolved in PBS containing 1% glucose) was added to each microtiter well. The plate was then incubated at 37° C. for 30 min, or longer, until dark blue/black crystals formation could be observed (usually 2 hours at most). The MTT reaction was terminated by aspiration of the solution. The crystals were then solubilized by adding 100 μL of 40% acetic acid to the microtiter wells. Killing efficacies were monitored by eye or quantitatively measured using a plate reader (absorbance at 550 nm). MBEC values were determined as the lowest compound concentration leading to 90% eradicated biofilm. All MBEC values using the MTT assay were recorded from at least three independent experiments.

[8] = tested on: C. neoformans ATCC 66031; assay: Fungal MIC susceptibility assay, C. neoformans; format: cell-based; conditions: for C. neoformans 66031 MIC: Table 2B
Method: Fungal minimum inhibition concentrations (MICs) were determined using standard microdilution methods according to the Clinical and Laboratory Standards Institute document M27-A3. The test compound concentration ranged from 0.01 to 100 μM. Amphotericin B (AmB) and itraconazole (ITC) (Fisher Scientific) were included as positive controls. DMSO, the vehicle control, was used at ≤1% v/v for these experiments. The fungal M27-A3 standard MIC assay protocol requires the following inoculum preparation protocol: The organisms were cultured onto PDA medium at 35° C. The inoculum is prepared by picking five colonies from 24-hour old culture of Candida spp. or 48-hour old culture of C. neoformans. The inoculum was suspended in 5 ml of sterile water, the resulting suspension was vortexed for 15 seconds and the cell density adjusted (by adding more sterile water) to an OD530=0.30, which yields a suspension of 1×10^6 to 5×10^6 cells per mL. The suspension was diluted 50 times and then 20 times using RPMI 1640 medium to obtain the two times test inoculum (1×10^3 to 5×10^3 cells per mL). The following steps are the same with the standard bacterial MIC protocol using 96-well plates. NOTE: RPMI 1640 medium was used in the fungal MIC assay (for both cell inoculum and compound dilution).

MIC UAEC-1 [6]	SMILES	C. albicans SC5314 MBC [1] [µM]	C. neoformans 66031 MBC [2] [µM]	MRSE 35984 MBC ([3]; Table 2A, CBD assay)	MRSE 35984 MBEC ([3]; Table 2A, CBD assay)	MIC K. pneu. 13883 ([4]; Table 4)	MRSA-2 MBC [5]	MRSA-2 MBEC [5]	C. albicans SC5314 MBEC [7]	C. neoformans 66031 MIC [8] [µM]	MIC C. neof 66031 ([8]; Table 4, antifungal) [µM]	further results
6.25 µM	CCCCCCCCCCCCCCCC[N+](C)(C)Cc1ccccc1.[Cl-] [BAC-16, reference compound]	6.25	6.25			9.38a micromolar			15.63	3.12	6.25	
	CCCCCCCCCCCCCCCCn1cc[n+](Cc2cccc(F)c2)c1C.[Br-] [Compound 18]			11.7^a/ μM	11.7^a μM		93.8^a/93.8^a μM	93.8^a/93.8^a μM				
12.5 µM	CCCCCCCCCCCC[N+](C)(C)CC[N+](C)(C)CC[N+](C)(C)CCCCCCCCCCCC [QAC-10, reference compound]			31.3 µM⁻¹	31.3 µM	25 µM	31.3 µM	125 µM				MBEC, MRSE biofilms ([3]; MRSE ATCC 35984): 31.3 µM; MRSE 35984 MBEC ([3]; Table 2, CBD assay, biofilm): 31.3/31.3 μM; MRSE 35984 MBC ([3]; Table 2, CBD assay, planktonic cells): 31.3/31.3 μM; MIC ([4]; Table 1, read-out: MIC K. pneumoniae 13883): 25 µM; MIC [6]: 12.5 µM
18.8a micromolar	CCCCCCCCCCCCCCCCn1cc[n+](Cc2ccccc2)c1C [NH125, 3-benzyl-1-hexadecyl-2-methyl-1H-imidazol-3-ium bromide, reference compound]											MBC ([3]; Staphylococcus epidermidis, Table 2, CBD assay, planktonic cells): 15.6 µM; MRSE 35984 MBEC ([3]; Table 2, CBD assay, biofilm): 5.9 µM; MIC ([4]; Klebsiella pneumoniae, ATCC13883, Table 1, read-out: MIC K. pneumoniae 13883): 18.8 µM; MIC ([4]; Klebsiella pneumoniae, ATCC13883, Table 4, read-out: MIC K. pneu. 13883): 18.8 µM; MIC ([6]; Escherichia coli): 18.8 µM; MIC ([8]; Cryptococcus neoformans, ATCC66031, Table 4, antifungal, read-out: MIC C. neof 66031): 3.13 µM
	CCCCCCCCCCCCCCCCn1cc(-c2ccccc2)[n+](C)n1.[I-] [Compound 30]						31.3^b/31.3 μM	31.3^b/31.3 μM				

SMILES	MIC UAEC-1 [6]	C. albicans SC5314 MBC [1] [µM]	C. neoformans 66031 MBC [2] [µM]	MRSE 35984 MBC ([3]; Table 2A, CBD assay)	MRSE 35984 MBEC ([3]; Table 2A, CBD assay)	MIC K. pneu. 13883 ([4]; Table 4)	MRSA-2 MBC [5]	MRSA-2 MBEC [5]	C. albicans SC5314 MBEC [7]	C. neoformans 66031 MIC [8] [µM]	MIC C. neof 66031 ([8]; Table 4, antifungal) [µM]	further results
CCCCCCCCCCCCCCCCn1cc[n+](CCO)c1C.[Br-] [Compound 11]	12.5 µM	6.25	3.13	3.9/3.9 μM	3.9/3.9 μM	18.8a micromolar	11.7 µM	31.3 µM	7.82	1.56	6.25	
CCCCCCCCCCCCCCCCn1cc[n+](C)c1C.[I-] [Compound 8]	12.5 µM	6.25	6.25	3.0^a/ μM	3.0^a μM	12.5 µM	11.7 µM	23.5 µM	15.63	1.56	6.25	
